Measured values published in US20250282723A1, “AMYLOID TARGETING AGENTS AND METHODS OF USING THE SAME” (The Regents of the University of California, priority 2021, published 2025).
Where “and” joins values, the source holds several entries; their conditions need not be identical. Identical values can stand only once.

Legend:
[1] = biological target: T1, aggregated Aβ (1-42) peptides (Homo sapiens, UniProt P05067); test: Fluorescence excitation/emission and fluorescence enhancement of probes bound versus unbound to aggregated Aβ (1-42) peptides; assay type: binding; conditions: probe 4 μM; for Em (λmax) (with Aβ) / Ex (λmax) (with Aβ): aggregated Aβ (1-42) 5 μM; for Em (λmax) (with Aβ) / Ex (λmax) (with Aβ) / Fold Increase with Aβ / Emmax (with Aβ): 5% DMSO in nanopure water; for Fold Increase with Aβ: fluorescence intensity with aggregated Aβ (1-42) 5 μM vs probe alone, at λmax of the amyloid-bound state; for Emmax (with Aβ) / FI with Aβ: probes of FIG. 14, aggregated Aβ(1-42) 5 μM; for FI with Aβ: fold increase of fluorescence, bound vs unbound
T1 construct: Synthetic Aβ (1-42) peptide was purchased from Biopeptide, Co LLC; purchased Biopeptide, Co LLC (San Diego, California); host or cells: chemical synthesis
T1 sequence (P05067 672-713): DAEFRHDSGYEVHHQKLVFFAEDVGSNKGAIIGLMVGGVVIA
Experimental: Preparation of aggregated Aβ (1-42) peptides. Synthetic Aβ (1-42) peptide was purchased from Biopeptide, Co LLC (San Diego, California). Aggregated Aβ (1-42) was prepared as previously described.^26 Briefly, Aβ (1-42) was dissolved in 100% 1,1,1,3,3,3,-hexafluoro-2-propanol (HFIP) to a concentration of 1 mM and put on a shaker at room temperature (RT) for 24 hours. The solution was then diluted in cold nanopure water (2:1 H2O: HFIP). Aliquoted fractions were lyophilized for 3 days before dissolving in nanopure water to a concentration of 100 μM. Aggregated Aβ solutions were incubated and shaken at 37° C. for 3 days before use. The formation of soluble aggregates (67% fibrils as a mixture with 13% oligomers and 20% monomer) was confirmed using a standard thioflavin T (ThT) assay and by Sodium Dodecyl Sulphate-Polyacrylamide Gel Electrophoresis (SDS-PAGE) gel analysis (FIG. 11 and FIG. 12).
(§1) Estimation of fluorescence enhancement of probes when bound versus unbound to aggregated Aβ (1-42) peptides. Aggregated Aβ (1-42) at a final concentration of 5 μM (based on the molecular weight of monomer) was mixed with each fluorescent probe at a final concentration of 4 μM in 5% DMSO in nanopure water. The solution (80 μL) was transferred to a black opaque 96 well plate and the fluorescence was read using a microplate reader. For all probes, the relative fluorescence enhancement of the bound versus unbound state was estimated by comparing the intensity at λmax of the amyloid-bound state.
Synthetic Aβ (1-42) peptide was purchased from Biopeptide, Co LLC (San Diego, California). Aggregated Aβ (1-42) was prepared as previously described.^32 Briefly, monomeric Aβ (1-42) was dissolved in 100% 1,1,1,3,3,3,-hexafluoro-2-propanol (HFIP) to a final concentration of 1 mM and dissolved on a shaker at RT for 24 hours. This solution was then diluted with cold nanopure water (2:1 H2O:HFIP) and aliquoted into fractions. These samples were then lyophilized for 3 days before dissolving in nanopure water to a final concentration of 100 μM. AD solutions were aggregated by incubating and shaking at 37° C. for 3 days before use. The formation of soluble aggregates was confirmed using a standard Thioflavin T (ThT) assay and by SDS-PAGE gel analysis.^1
(§2) Aggregated αS or Aβ(1-42) at a final concentration of 5 μM (based on the molecular weight of monomer) was mixed with each fluorescent probe at a final concentration of 4 μM in 5% DMSO in nanopure water. The solution (80 μL total volume) was transferred to a black opaque 96 well plate and the fluorescence excitation and emission were read using a microplate reader. For emission fluorescence enhancement, the relative fluorescence enhancement of the bound versus unbound state was estimated by comparing the fluorescence intensity at λmax of the amyloid-bound state.

[2] = Quantum yield measurements; assay type: physicochemical; conditions: 5% DMSO/H2O, reference standard Coumarin 30; for Quantum Yield (Φ): probes of FIG. 14
Experimental: Quantum Yield Measurements. To determine the quantum yield (QY) of compounds ARCAM, 1-5, a procedure that was similar to a previously reported protocol for estimating the QY for Thioflavin T^24 was used. Briefly, the absorbance spectrum of each probe (in 5% Dimethyl Sulfoxide (DMSO)/water (H2O)), in addition to the absorbance spectrum for the reference standard (Coumarin 30, QY=0.67)^27 was measured. The wavelength at which the two normalized absorbance curves intersected was used as the excitation wavelength. A serial dilution of each probe and the standard was made with absorbance values at the excitation wavelength in the range of 0 to 0.1 absorbance units. At each concentration, the emission spectra for each probe and the standard were measured. Technical triplicates of these experiments were performed for all probes, and the averages were recorded. From these emission spectra, the area under the curve was calculated and plotted against the absorbance at each concentration (FIGS. 3-7). The data were fitted to Equation 1 to obtain estimates for QY: […]
where QY represents the quantum yield, A represents the absorbance, E represents the integrated fluorescence emission, η represents the refractive index of the solvent^28,29, and the ‘p’ and ‘r’ subscripts signify the probe or the reference compound, respectively.
Quantum Yield ((D) for each probe was measured as described previously.^31 Briefly, we measured the absorbance spectrum of each probe in 5% DMSO/H2O, as well as the absorbance spectrum for the reference standard (Coumarin 30, =0.67 in Acetonitrile). Both normalized absorbance curves were plotted, and the wavelength of intersection was used as the excitation wavelength. A serial dilution was made for each probe and the standard with absorbance values at the excitation wavelength varying between of 0 to 0.1 absorbance units. At each concentration, the emission spectra for each probe and the standard were measured. Each experiment was repeated in technical triplicates for all probes, and the averages were recorded. The integrated fluorescence emission was calculated and plotted against the absorbance at each concentration. The data were fitted to Equation Si to obtain estimates for Φ: […]
where Φ represents the quantum yield, A represents the absorbance, E represents the integrated fluorescence emission, η represents the refractive index of the solvent, and the ‘p’ and ‘r’ subscripts signify the probe or the reference compound, respectively.

[3] = Fluorescence excitation and emission spectra of free (unbound) probes in aqueous solution; assay type: physicochemical; conditions: for Em (λmax) (Free) / Ex (λmax) (Free): free probe in aqueous solution; for Emmax (Free): probes of FIG. 14, free; for fluorescence intensity of the free probe in aqueous solution compared to ARCAM (1): free probes in aqueous solution, FIG. 2
Experimental: as §1, §2

Compound | Em (λmax) (with Aβ) [1] [nm] | Ex (λmax) (with Aβ) [1] [nm] | Fold Increase with Aβ [1] | Fold Increase with Aβ ([1]; listed as ARCAM (1)) [fold] | Emmax (with Aβ) [1] [nm] | FI with Aβ [1] | QY [2] | Quantum Yield (Φ) [2] | Em (λmax) (Free) [3] [nm] | Ex (λmax) (Free) [3] [nm] | Emmax (Free) [3] [nm] | fluorescence intensity of the free probe in aqueous solution compared to ARCAM (1) [3]
COCCOCCOCCNC(=O)C(C#N)=Cc1ccc2cc(N3CCCCC3)ccc2c1 (mixture of isomers) [Compound 1] | 560 ± 10 | 421 ± 4 | 2.1 ± 0.7 fold | 2.1 | 560 | 2.1 ± 0.7 | 0.0066 ± 0.0023 | 0.0066 | 590 ± 4 | 409 ± 11 | 590 | 
COCCOCCOCCNC(=O)/C(C#N)=C/c1ccc2cc(N3CCCCC3C)ccc2c1 (racemic) [Compound 4, (E)-2-cyano-N-(2-(2-(2-methoxyethoxy)ethoxy)ethyl)-3-(6-(2-methylpiperidin-1-yl)naphthalen-2-yl)acrylamide] | 559 ± 8 | 439 ± 3 | 1.9 fold and 1.9 ± 0.5 fold |  | 559 | 1.9 ± 0.5 | 0.0062 ± 0.0003 | 0.0062 | 583 ± 1 | 431 ± 4 | 583 | lower but similar in magnitude to ARCAM (1)
CCC1CCCCN1c1ccc2cc(/C=C(\C#N)C(=O)NCCOCCOCCOC)ccc2c1 (racemic) [Compound 5, (E)-2-cyano-3-(6-(2-ethylpiperidin-1-yl)naphthalen-2-yl)-N-(2-(2-(2-methoxyethoxy)ethoxy)ethyl)acrylamide] | 567 ± 5 | 443 ± 5 | 1.2 fold and 1.2 ± 0.1 fold |  | 567 | 1.2 ± 0.1 | 0.0055 ± 0.0010 | 0.0055 | 575 ± 6 | 445 ± 1 | 575 | lower but similar in magnitude to ARCAM (1)
